Assay results as given in patent publication US12421253B2 (Mirati Therapeutics, Inc., priority 2020, dated 2025).

Assays:
[1] = biological target: T1, KRas^WT (Homo sapiens, UniProt P01116); experiment: KRas binding assay (TR-FRET displacement of Cy5 labelled tracer)
T1 construct: […]; biotin (biotinylated); purchased Accelegan Inc
Experimental: (§3) The ability of a compound to bind to KRas was measured using a TR-FRET displacement assay. […] After a 60-minute incubation at room temperature, the reaction was measured using a BMG LABTECH CLARIO star Plus via TR-FRET. […] The POC values were fit to a 4-parameter IC50 equation and the IC50 value reported.

[2] = biological target: T2, KRas^G12S (Homo sapiens, UniProt P01116, G12S); experiment: as above
T2 construct: […]; biotin (biotinylated); purchased Accelegan Inc
Experimental: as §3

[3] = biological target: KRas^G12C (Homo sapiens, UniProt P01116, G12C); experiment: biochemical
Chain of KRas^G12C (P01116 1-169 isoform P01116-2 G12C): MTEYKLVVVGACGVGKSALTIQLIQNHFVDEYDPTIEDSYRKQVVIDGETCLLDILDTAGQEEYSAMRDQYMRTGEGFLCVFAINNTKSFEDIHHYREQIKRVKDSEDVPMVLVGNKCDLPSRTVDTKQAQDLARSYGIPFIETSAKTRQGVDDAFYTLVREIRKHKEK
Experimental: as §3

[4] = biological target: T3, KRas^G12R (Homo sapiens, UniProt P01116, G12R); experiment: KRas binding assay (TR-FRET displacement of Cy5 labelled tracer)
T3 construct: […]; biotin (biotinylated); purchased Accelegan Inc
T3 sequence (P01116 1-169 isoform P01116-2 G12R): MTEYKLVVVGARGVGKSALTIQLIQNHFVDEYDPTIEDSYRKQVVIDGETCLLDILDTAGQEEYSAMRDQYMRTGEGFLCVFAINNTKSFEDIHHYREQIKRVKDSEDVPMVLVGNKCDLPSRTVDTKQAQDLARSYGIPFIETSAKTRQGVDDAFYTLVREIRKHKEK
Experimental: as §3

[5] = biological target: T4, KRas^G12V (Homo sapiens, UniProt P01116, G12V); experiment: as above
T4 construct: […]; biotin (biotinylated); purchased Accelegan Inc
T4 sequence (P01116 1-169 isoform P01116-2 G12V): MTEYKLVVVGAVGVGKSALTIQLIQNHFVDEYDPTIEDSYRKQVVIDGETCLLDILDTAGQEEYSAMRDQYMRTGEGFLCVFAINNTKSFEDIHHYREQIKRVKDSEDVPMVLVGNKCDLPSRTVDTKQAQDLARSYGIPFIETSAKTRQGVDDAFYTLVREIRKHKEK
Experimental: as §3

[6] = biological target: KRas^G13D (Homo sapiens, UniProt P01116, G13D); experiment: biochemical
Chain of KRas^G13D (P01116 1-169 isoform P01116-2 G13D): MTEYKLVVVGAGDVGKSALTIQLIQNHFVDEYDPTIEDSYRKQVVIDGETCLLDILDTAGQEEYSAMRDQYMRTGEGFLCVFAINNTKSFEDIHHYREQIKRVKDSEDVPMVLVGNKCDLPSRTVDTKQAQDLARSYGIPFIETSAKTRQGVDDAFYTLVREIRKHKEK
Experimental: as §3

[7] = biological target: T5, KRas^G12A (Homo sapiens, UniProt P01116, G12A); experiment: KRas binding assay (TR-FRET displacement of Cy5 labelled tracer)
T5 construct: […]; biotin (biotinylated); purchased Accelegan Inc
T5 sequence (P01116 1-169 isoform P01116-2 G12A): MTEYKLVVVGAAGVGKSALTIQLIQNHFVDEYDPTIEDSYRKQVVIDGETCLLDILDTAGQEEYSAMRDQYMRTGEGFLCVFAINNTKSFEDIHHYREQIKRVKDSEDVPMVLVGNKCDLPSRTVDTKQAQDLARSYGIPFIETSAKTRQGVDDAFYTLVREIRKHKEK
Experimental: as §3

[8] = test system: PSN-1 (G12R) cells, phospho-ERK; experiment: Inhibition of KRas-mediated phosphorylation of ERK (phospho-ERK/GAPDH antibody detection, LI-COR); type: cell-based; conditions: Homo sapiens, PSN1, 3 hours
Summary of the method: (§1)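 Cells seeded 20,000/well, attached 12-14 h, then compound (0.5% DMSO) for 3 h. Formaldehyde-fixed, methanol-permeabilized cells stained for phospho-ERK (Thr202/Tyr204) and GAPDH; infrared imaging. Ratio expressed as % of DMSO control; IC50 from 4-parameter fit.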

[9] = test system: NCI-H460 (Q61H) cells, phospho-ERK; experiment: as above; type: cell-based; conditions: Homo sapiens, 3 hours
Summary of the method: as §1

[10] = test system: NCI-H727 (G12V) cells, phospho-ERK; experiment: as above; type: cell-based; conditions: Homo sapiens, 3 hours
Summary of the method: as §1

[11] = test system: A549 (G12S) cells, phospho-ERK; experiment: as above; type: cell-based; conditions: Homo sapiens, 3 hours
Summary of the method: as §1

[12] = test system: HCT116 (G13D) cells, phospho-ERK; experiment: as above; type: cell-based; conditions: Homo sapiens, HCT-116, 3 hours
Summary of the method: as §1

[13] = test system: AsPC-1 (G12D) cells, phospho-ERK; experiment: as above; type: cell-based; conditions: Homo sapiens, ASPC1, 3 hours
Summary of the method: as §1

[14] = test system: NCI-H358 (G12C) cells, phospho-ERK; experiment: as above; type: cell-based; conditions: Homo sapiens, 3 hours
Summary of the method: as §1

[15] = biological target: T6, KRas^G12D (Homo sapiens, UniProt P01116, G12D); experiment: KRas binding assay (TR-FRET displacement of Cy5 labelled tracer)
T6 construct: […]; biotin (biotinylated); purchased Accelegan Inc
T6 sequence (P01116 1-169 isoform P01116-2 G12D): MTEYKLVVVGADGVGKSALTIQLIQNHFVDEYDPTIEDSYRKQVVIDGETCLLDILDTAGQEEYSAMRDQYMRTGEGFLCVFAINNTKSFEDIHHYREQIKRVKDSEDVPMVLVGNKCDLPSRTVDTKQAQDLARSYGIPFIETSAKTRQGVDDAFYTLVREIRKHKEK
Experimental: as §3

[16] = test system: H727 cells, pERK; experiment: Inhibition of KRas phosphorylation of ERK (Cisbio HTRF Advanced pERK assay); type: cell-based; conditions: Homo sapiens, NCI-H727, 3 h, read-out: Inhibition (HTRF IC50 nM) of KRas-mediated Phosphorylation of ERK, H727
Summary of the method: (§2)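 Overnight-plated cells (RPMI, 10% FBS); compound 3 h, 37 °C, 10 uM top, 3-fold x10, 0.8% DMSO; min ctrl trametinib 0.2 uM; lysis 40 min 4 °C; pERK by HTRF, 2 h RT.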

[17] = test system: H460 cells, pERK; experiment: as above; type: cell-based; conditions: Homo sapiens, NCI-H460, 3 hrs, read-out: Inhibition (HTRF IC50 nM) of KRas-mediated Phosphorylation of ERK, H460
Summary of the method: as §2

[18] = test system: A549 cells, pERK; experiment: as above; type: cell-based; conditions: Homo sapiens, 3 hrs, read-out: Inhibition (HTRF IC50 nM) of KRas-mediated Phosphorylation of ERK, A549
Summary of the method: as §2

[19] = test system: HCT116 cells, pERK; experiment: as above; type: cell-based; conditions: Homo sapiens, HCT-116, 3 hrs, read-out: Inhibition (HTRF IC50 nM) of KRas-mediated Phosphorylation of ERK, HCT116
Summary of the method: as §2

[20] = test system: ASPC1 cells, pERK; experiment: as above; type: cell-based; conditions: Homo sapiens, ASPC1, 3 h, AsPC-1 cells, read-out: Inhibition (HTRF IC50 nM) of KRas-mediated Phosphorylation of ERK, AsPC-1
Summary of the method: as §2

[21] = biological target: KRas^Q61H (Homo sapiens, UniProt P01116, Q61H); experiment: biochemical
Chain of KRas^Q61H (P01116 1-169 isoform P01116-2 Q61H): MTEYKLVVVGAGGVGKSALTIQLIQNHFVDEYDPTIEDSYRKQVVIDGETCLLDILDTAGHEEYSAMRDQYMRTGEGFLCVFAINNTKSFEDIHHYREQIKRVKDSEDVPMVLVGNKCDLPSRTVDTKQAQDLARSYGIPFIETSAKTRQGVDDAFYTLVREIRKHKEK
Experimental: as §3

T1 sequence (P01116 1-169 isoform P01116-2): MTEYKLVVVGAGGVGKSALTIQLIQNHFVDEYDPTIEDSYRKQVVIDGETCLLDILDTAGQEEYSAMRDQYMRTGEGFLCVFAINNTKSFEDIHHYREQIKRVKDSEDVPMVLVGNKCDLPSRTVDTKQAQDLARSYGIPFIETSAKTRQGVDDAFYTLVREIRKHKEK
T2 sequence (P01116 1-169 isoform P01116-2 G12S): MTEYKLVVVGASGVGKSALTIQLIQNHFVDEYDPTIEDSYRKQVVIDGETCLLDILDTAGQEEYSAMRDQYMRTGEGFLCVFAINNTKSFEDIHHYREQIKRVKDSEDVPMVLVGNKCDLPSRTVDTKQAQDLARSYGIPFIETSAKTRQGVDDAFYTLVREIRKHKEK

Compound	IC50 [1] [nM]	IC50 [2] [nM]	IC50 [3] [nM]	IC50 [4] [nM]	IC50 [5] [nM]	IC50 [6] [nM]	IC50 [7] [nM]	IC50 [8] [nM]	IC50 [9] [nM]	IC50 [10] [nM]	IC50 [11] [nM]	IC50 [12] [nM]	IC50 [13] [nM]	IC50 [14] [nM]	IC50 [15] [nM]	IC50 [21] [nM]	also measured
CCc1c(F)ccc2cc(O)cc(N3CCc4c(nc(OC[C@@]56CCCN5C[C@H](F)C6)nc4N4CCC[C@@](C)(O)C4)C3)c12 [Example 2, (R)-1-(7-(8-ethyl-7-fluoro-3-hydroxynaphthalen-1-yl)-2-(((2R,7aS)-2-fluorohexahydro-1H-pyrrolizin-7a-yl)methoxy)-5,6,7,8-tetrahydropyrido[3,4-d]pyrimidin-4-yl)-3-methylpiperidin-3-ol]	≤ 2	≤ 2	≤ 2	≤ 2	≤ 2	52	≤ 2	3530	184	798	241	863	280	252	≤ 2	≤ 2	IC50 [16]: 315 nM; IC50 [17]: 146 nM; IC50 [18]: 144 nM; IC50 [19]: 426 nM; IC50 [20]: 29 nM
CCc1c(F)ccc2cc(O)cc(N3CCc4c(nc(OCC56CCCN5CCC6)nc4N4CCC[C@@](C)(O)C4)C3)c12 [Example 1, (R)-1-(7-(8-ethyl-7-fluoro-3-hydroxynaphthalen-1-yl)-2-((hexahydro-1H-pyrrolizin-7a-yl)methoxy)-5,6,7,8-tetrahydropyrido[3,4-d]pyrimidin-4-yl)-3-methylpiperidin-3-ol]	≤ 2	≤ 2	≤ 2	≤ 2	≤ 2	≤ 2	≤ 2	1400	357	1260	1020	601	398	236	≤ 2	≤ 2	–
